Data set [1] concerns West Nile virus. Put plainly: anti-West Nile virus activity of xanthine analogs in HEK293 cells. It counts as cell-based. The note with it: HEK293, read-out: EC90 (effective concentration to inhibit 90% of virus).
Data set [2] is described as follows: cell viability assay (cytotoxicity) in HEK293 cells. It is filed as cell-based. The note with it: human, read-out: CC50 (50% cytotoxicity concentration).

For `CC(C)c1ccc(CN2CCN(c3nc4c(c(=O)[nH]c(=O)n4C)n3Cc3ccccc3F)CC2)cc1` [Compound 41, 7-(2-Fluorobenzyl)-8-(4-(4-isopropylbenzyl)piperazin-1-yl)-3-methyl-3,7-dihydro-1H-purine-2,6-dione], the EC90 in data set [1] was 1.1 µM. Also, in data set [2], the CC50 came out at 24 µM.

On to `Cn1c(=O)[nH]c(=O)c2c1nc(N1CCN(c3ccc(C(F)(F)F)cc3)CC1)n2Cc1ccccc1F` [Compound 30, 7-(2-Fluorobenzyl)-3-methyl-8-(4-(4-(trifluoromethyl)phenyl)piperazin-1-yl)-3,7-dihydro-1H-purine-2,6-dione], for which, in data set [1], the EC90 was determined as 6.5 µM. Moreover, the CC50 in data set [2] turned out to be 12.9 µM.

With `Cn1c(=O)[nH]c(=O)c2c1nc(N1CCN(Cc3ccc(C(C)(C)C)cc3)CC1)n2Cc1ccccc1F` [Compound 36, 8-(4-(4-(tert-butyl)benzyl)piperazin-1-yl)-7-(2-fluorobenzyl)-3-methyl-3,7-dihydro-1H-purine-2,6-dione], the EC90 in data set [1] was 0.87 µM. Moreover, the CC50 in data set [2] is above 30 µM.

For `Cn1c(=O)n(CO)c(=O)c2c1nc(N1CCN(Cc3ccc(C(C)(C)C)cc3)CC1)n2Cc1ccccc1F` [Compound 5, 8-(4-(4-(tert-butyl)benzyl)piperazin-1-yl)-7-(2-fluorobenzyl)-1-(hydroxymethyl)-3-methyl-3,7-dihydro-1H-purine-2,6-dione], the EC90 in data set [1] is 1.2 µM. In addition, the CC50 in data set [2] was determined as 16.8 µM.

Regarding `Cn1c(=O)[nH]c(=O)c2c1nc(N1CCC(c3ccccc3)CC1)n2Cc1ccccc1F` [Compound 56, 7-(2-Fluorobenzyl)-3-methyl-8-(4-phenylpiperidin-1-yl)-3,7-dihydro-1H-purine-2,6-dione], the EC90 in data set [1] was 2.4 µM. Besides, the CC50 in data set [2] was 10.7 µM.

Consider `Cc1ccc(C)c(CN2CCN(c3nc4c(c(=O)[nH]c(=O)n4C)n3Cc3ccc(F)cc3F)CC2)c1` [Compound 15, 7-(2,4-Difluorobenzyl)-8-(4-(2,5-dimethylbenzyl)piperazin-1-yl)-3-methyl-3,7-dihydro-1H-purine-2,6-dione], for which the EC90 in data set [1] is above 10 µM. Also, the CC50 in data set [2] was above 40 µM.

On to `Cn1c(=O)[nH]c(=O)c2c1nc(N1CCN(Cc3ccc(C(C)(C)C)nc3)CC1)n2Cc1ccccc1F` [Compound 38, 8-(4-((6-(tert-Butyl)pyridin-3-yl)methyl)piperazin-1-yl)-7-(2-fluorobenzyl)-3-methyl-3,7-dihydro-1H-purine-2,6-dione], for which, in data set [1], the EC90 was 16 µM. Further, in data set [2], the CC50 is 34.2 µM.

With `COC(=O)c1ccc(Cn2c(N3CCN(Cc4ccc(C(C)(C)C)cc4)CC3)nc3c2c(=O)[nH]c(=O)n3C)c(F)c1` [Compound 18, methyl 4-((8-(4-(4-(tert-butyl)benzyl)piperazin-1-yl)-3-methyl-2,6-dioxo-1,2,3,6-tetrahydro-7H-purin-7-yl)methyl)-3-fluorobenzoate], in data set [1], the EC90 was 5.2 µM. The CC50 in data set [2] is 21.4 µM.

As for `Cc1ccc(C)c(CN2CCN(c3nc4c(c(=O)[nH]c(=O)n4C)n3Cc3ccc(F)cc3)CC2)c1` [Compound 14, 8-(4-(2,5-Dimethylbenzyl)piperazin-1-yl)-7-(4-fluorobenzyl)-3-methyl-3,7-dihydro-1H-purine-2,6-dione], the EC90 in data set [1] was 6.1 µM. Moreover, the CC50 in data set [2] is above 30 µM.

Take `Cn1c(=O)[nH]c(=O)c2c1nc(N1CCN(Cc3ccc(C(C)(C)O)cc3)CC1)n2Cc1ccccc1F` [Compound 40, 7-(2-fluorobenzyl)-8-(4-(4-(2-hydroxypropan-2-yl)benzyl)piperazin-1-yl)-3-methyl-3,7-dihydro-1H-purine-2,6-dione]: the EC90 in data set [1] was above 10 µM. Moreover, in data set [2], the CC50 was above 40 µM.

With `Cn1c(=O)[nH]c(=O)c2c1nc(N1CCN(C(=O)c3ccc(C(C)(C)C)cc3)CC1)n2Cc1ccccc1F` [Compound 44, 8-(4-(4-(tert-Butyl)benzoyl)piperazin-1-yl)-7-(2-fluorobenzyl)-3-methyl-3,7-dihydro-1H-purine-2,6-dione], the EC90 in data set [1] is 8.8 µM. Moreover, the CC50 in data set [2] is above 30 µM.

For the compound `Cn1c(=O)[nH]c(=O)c2c1nc(N1CCN(Cc3ccc(F)cc3)CC1)n2Cc1ccccc1F` [Compound 35, 7-(2-Fluorobenzyl)-8-(4-(4-fluorobenzyl)piperazin-1-yl)-3-methyl-3,7-dihydro-1H-purine-2,6-dione], the EC90 in data set [1] came to 10.5 µM. Besides, the CC50 in data set [2] is above 30 µM.

On to `Cn1c(=O)[nH]c(=O)c2c1nc(N1CCC(C)(C)CC1)n2Cc1ccccc1F` [Compound 52, 8-(4,4-Dimethylpiperidin-1-yl)-7-(2-fluorobenzyl)-3-methyl-3,7-dihydro-1H-purine-2,6-dione], for which the EC90 in data set [1] is 3.9 µM. Moreover, the CC50 in data set [2] is above 30 µM.

Regarding `Cc1ccc(C)c(CN2CCN(c3nc4c(c(=O)[nH]c(=O)n4C)n3Cc3ccccc3C#N)CC2)c1` [Compound 11, 2-((8-(4-(2,5-Dimethylbenzyl)piperazin-1-yl)-3-methyl-2,6-dioxo-1,2,3,6-tetrahydro-7H-purin-7-yl)methyl)benzonitrile], in data set [1], the EC90 stood at 6.9 µM. Moreover, the CC50 in data set [2] was above 30 µM.

For the compound `Cn1c(=O)[nH]c(=O)c2c1nc(N1CCN(Cc3ccc(C(C)(C)C)cc3)CC1)n2Cc1ccccc1OC(F)(F)F` [Compound 17, 8-(4-(4-(tert-Butyl)benzyl)piperazin-1-yl)-3-methyl-7-(2-(trifluoromethoxy)benzyl)-3,7-dihydro-1H-purine-2,6-dione], in data set [1], the EC90 came out at 1.2 µM. For the same compound, the CC50 in data set [2] was 10.2 µM.

In the case of `C=C(C)c1ccc(CN2CCN(c3nc4c(c(=O)[nH]c(=O)n4C)n3Cc3ccccc3F)CC2)cc1` [Compound 42, 7-(2-Fluorobenzyl)-3-methyl-8-(4-(4-(prop-1-en-2-yl)benzyl)piperazin-1-yl)-3,7-dihydro-1H-purine-2,6-dione], the EC90 in data set [1] is 2.1 µM. Further, the CC50 in data set [2] is 22 µM.

For the compound `CCn1c(N2CCN(Cc3cc(C)ccc3C)CC2)nc2c1c(=O)[nH]c(=O)n2C` [Compound 8, 8-(4-(2,5-Dimethylbenzyl)piperazin-1-yl)-7-ethyl-3-methyl-3,7-dihydro-1H-purine-2,6-dione], the EC90 in data set [1] was above 10 µM. For the same compound, the CC50 in data set [2] is above 40 µM.

For `Cn1c(=O)[nH]c(=O)c2c1nc(N1CCN(C(=O)Cc3ccc(C(C)(C)C)cc3)CC1)n2Cc1ccccc1F` [Compound 50, 8-(4-(2-(4-(tert-Butyl)phenyl)acetyl)piperazin-1-yl)-7-(2-fluorobenzyl)-3-methyl-3,7-dihydro-1H-purine-2,6-dione], the EC90 in data set [1] came out at 3.7 µM. Moreover, the CC50 in data set [2] is above 30 µM.

For `Cn1c(=O)[nH]c(=O)c2c1nc(N1CCN(c3cccc(C(C)(C)C)c3)CC1)n2Cc1ccccc1F` [Compound 28, 8-(4-(3-(tert-butyl)phenyl)piperazin-1-yl)-7-(2-fluorobenzyl)-3-methyl-3,7-dihydro-1H-purine-2,6-dione], the EC90 in data set [1] stood at 10 µM. In addition, the CC50 in data set [2] was above 40 µM.

`Cc1ccc(C)c(CN2CCN(c3nc4c([nH]3)c(=O)n(Cc3ccccc3F)c(=O)n4C)CC2)c1` [Compound 3, 8-(4-(2,5-dimethylbenzyl)piperazin-1-yl)-1-(2-fluorobenzyl)-3-methyl-3,7-dihydro-1H-purine-2,6-dione]: the EC90 in data set [1] was above 10 µM. In data set [2], the CC50 is above 40 µM.
